Measured values reported in patent US20260000713A1, “MICROBIAL M[…] INTESTINAL INFLAMMATION” (CEDARS-SINAI MEDICAL CENTER, priority 2021, published 2026).
Read-outs that look alike come from different tables or passages of the source.

Tests used:
[1] = test system: Germ-free IBD susceptible mice; conditions: Germ-free Tl1a-Tg mice receiving acetate vs standard water
Method: (§1) Acetate supplementation: Sodium acetate (Sigma Aldrich) was added at 200 mM to drinking water. SPF mice were supplemented with acetate water for 2 or 4 months starting at 2 months of age. GF mice were supplemented with acetate water for 3 months starting at 2-3 months of age.

[2] = test system: SPF WT mice or tl1a-tg mice
Method: (§2) Histology Scoring: Ileal tissues were collected 1-2 cm long near cecum, paraffin-embedded and stained with H&E for histological analysis. Severity of ileal inflammation was evaluated in a blinded manner according to previously described criteria by two trained animal pathologists. Spontaneous ileitis was evaluated by scoring the degree of inflammation, extent of involvement, crypt damage and villus changes as described. GF mice were evaluated using a scoring criterion.
as §1
In a second set of experiments, SPF WT mice or tl1a-tg mice were treated with acetate in drinking water for 2 or 4 months starting at 2 months of age. […] 9 to 23 mice were used per group.

IFN-γ = conditions: MLN cells restimulated with anti-CD3ε and anti-CD28 for 3 days
Method: as §1
Isolation of mesenteric lymph nodes mononuclear cells, restimulation, and ELISA: Mesenteric lymph nodes (MLN) were removed from the peritoneal cavity and mesenteric fat was removed. Single cell suspension was prepared by crushing MLN between two glass slides and passing the cell suspension through a 40 μm cell strainer. Single-cell suspensions were restimulated with anti-CD3ε (0.5 μg/ml) and anti-CD28 (1 μg/ml) antibodies for 3 days. Cytokine levels in supernatants were measured by ELISA. Cytokine concentration in culture supernatants was assayed by ELISA for murine IFN-γ (eBioscience).
(§3) The groups depicted include WT H2O, WT Ac (acetate), Tl1a-tg H2O, and Tl1a-tg Ac. Around 12-19 mice were used in each group. […] Around 6 mice were used per group.

[3] = test system: GF WT mice or GF Tl1a-tg mice; conditions: 200 mM sodium acetate in drinking water for 3 months, vs regular drinking water
Method: as §2
The impact of acetate on the development of ileitis was examined.
as §1
12-week-old littermate GF WT mice or GF Tl1a-tg mice were treated with 200 mM of sodium acetate in drinking water (ad libitum) for 3 months. […] The number of mice used was 12 to 22 mice per group.

Paneth cells = conditions: acetate treated GF WT or Tl1a-tg mice
Method: as §1, §3

CC(=O)[O-].[Na+] [acetate, Sodium acetate]
cecal collagen deposition (fibrosis) [1]: increase in cecal collagen deposition | ileitis (histoscore) ([2]; SPF Tl1a-tg mice, acetate in drinking water for 2 months starting at 2 months of age, vs age-matched water controls): led to ileitis | ileal inflammation (histoscore) ([2]; SPF WT mice, acetate in drinking water for 4 months starting at 2 months of age, vs water controls): developed ileal inflammation | IFN-γ secretion by MLN (IFN-γ; acetate treated GF Tl1a-tg mice): significantly elevated IFN-γ secretion | IFN-γ secretion by MLN (IFN-γ; acetate treated GF WT mice): significantly elevated IFN-γ secretion | ileal inflammation (ileum histoscore) ([3]; GF Tl1a-tg mice): developed ileal inflammation | ileal inflammation (ileum histoscore) ([3]; GF WT mice): developed ileal inflammation | Paneth cell granule maturation (percentage of Paneth cells with D0, D1, D2, D3 features) (Paneth cells): did not result in normal Paneth cell granule maturation
